This note sets out measurements from patent US20090023685A1, “Nebulized or Sprayed Cidofovir for Recurrent Respiratory Papillomatosis” (priority 2007, published 2009).

For this data set, the system named is Recurrent Respiratory Papillomatosis due to Human Papillomavirus subtype 6 (HPV-6). The experiment in a line: Case report: systemic, topical and nebulized cidofovir in a young child with recurrent respiratory papillomatosis. Format: in vivo. Here is the method: We decided that applying cidofovir using a flexible bronchoscope and a cytology brush soaked in cidofovir would be a reasonable method to attempt to deliver the drug to the papillomas. We used the intravenous form of the drug, diluted to the concentration used in the gel based formula.
Therefore, we made a 4 ml solution at the same concentration we were using for the topical application.
Therefore, we elected to nebulize the drug (Cidofovir 10 mg/ml in NS, 4 cc, 3 times/week).
Background: a person is an ex-prem (24 week GA) born to a mom who had antenatal bleeding and had been given steroids prior to delivery. Their postnatal course was complicated by Respiratory distress syndrome (mechanical ventilation for 52 days, CPAP for 28 days and O2 for 30 days), a patent ductus arteriousus (indomethacin & surgical ligation), hemodynamic instability necessitating inotropic support and renal failure. Following discharge home a person had severe GERD, (L) inguinal hernia repair and was described to have colic.
Presentation: At 10½ months of age, they presented to the Children's Hospital Emergency Room with increasing difficulties breathing. […] They were admitted to hospital and subsequently transferred to the Pediatric intensive care unit. They were diagnosed with upper airway obstruction and treated with Heliox (80:20) and nebulized racemic epinephrine. […] They underwent tracheostomy.
Initial management: Suspension laryngoscopy with CO2 laser for debulking papillomas was performed ×6 (locally) and ×2 (larger tertiary centre) (FIG. 1b). […] Palliation was discussed with the […].
Adjuvant therapy: Medical management was initiated 6 months into treatment.
Topical and nebulized cidofovir: The patient was started on topically applied cidofovir via flexible bronchoscopy q2 weeks in addition to continuing the intravenous (systemic) dose. A cytology brush was soaked in cidofovir 10 mg/ml solution and advanced via the bronchoscope to the lower airway papillomas (FIG. 2a). We elected to start nebulized cidofovir to reduce the frequency of Bronchoscopic procedures and to intensify treatment. […] After 6 months of nebulized cidofovir, the dose was reduced to 2× weekly.
Current status: A large papilloma was surgically debulked (microdebridment) and topical cidofovir was topically applied to the base of the lesion. […] undergoes surveillance bronchoscopy q3 months and continues on nebulized cidofovir 5 mg/ml, 4 cc 2× weekly (FIGS. 2c and 3b).

Entries after “also recorded” stand apart in the source; their conditions may differ.

With `Nc1ccn(C[C@@H](CO)OCP(=O)(O)O)c(=O)n1` [cidofovir], where the note is “after nebulized cidofovir, surgical debulking of a large papilloma and topical cidofovir to its base”, the current disease status result was “papilloma free; also recorded: Her disease has remitted”. Besides, the effect on papillomatosis result (intravenous (systemic) cidofovir 4.1 mg/kg/dose every 4 weeks) is recorded as “without effect”. In addition, for the setting “nebulized cidofovir”, the “effect in the lung (CT scans)” value is reported as “improvement in the lung”. Besides, the “complications / side effects” value reads like this: (nebulized cidofovir 10 mg/ml, 4 ml (total dose 40 mg), 3× weekly) “bleeding (dose dependent & related to infection with bacteria; also recorded: cough”; (nebulized cidofovir 10 mg/ml, 4 ml (total dose 40 mg), 3× weekly, listed as Cidofovir) “hemoptysis; also recorded: bleeding and protracted airways inflammation”; (nebulized cidofovir after the dose was reduced (5 mg/ml; later 2 times/week)) “resolution of the complications”; (nebulized cidofovir after the dose was reduced (5 mg/ml; later 2 times/week), listed as Cidofovir) “without complications”. In addition, the “effect on lower airway papillomas” value by setting is: (nebulized cidofovir in saline, 4 ml, 2-3 times/week) “worked well; also recorded: reduction of the burden of the papillomas”; (nebulized cidofovir in saline, 4 ml, 2-3 times/week, listed as Cidofovir) “lower airway lesions have visually disappeared”; (topical cidofovir (10 mg/ml, thickened with sterile glycerine) applied by cytology brush via flexible bronchoscopy every 2 weeks) “worked to reduce the size of the papillomas”; (topical cidofovir (10 mg/ml, thickened with sterile glycerine) applied by cytology brush via flexible bronchoscopy every 2 weeks, listed as Cidofovir) “The lesions regressed”. Besides, the “papillomas in the main airway (trachea)” value (nebulized cidofovir, droplet size 2-4 microns) is given as “remained large”. Further, the course of disease result (systemic cidofovir q2 weeks plus Interferon α2b 5 MU/m^2 3× weekly, listed as Cidofovir) is “did not halt the progression of the disease”. Further, the course of lesions result (systemic cidofovir stepped down to q3 weeks (with Interferon α2b)) is recorded as “the lesions worsened”.
